Like-named read-outs stand apart in the source and are kept apart here.
Key:
JAK2 = molecular target: T1, JAK2 (Homo sapiens, UniProt O60674); assay: Biochemical JAK2 kinase assay (LanthaScreen); conditions: for Ki: read-out: JAK 2 (pKi) (converted)
T1 construct: GST; purchased Life Technologies
Procedure, shortened: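 pKi values derive from pIC50 via Cheng-Prusoff, with IC50 from a 4-parameter fit of percent-inhibition TR-FRET data using Tb-anti-pSTAT1 (pTyr701) detection. Compound, GST-JAK2 and GFP-STAT1 substrate were pre-incubated 1 h, then ATP started a 1 h ambient reaction (HEPES pH 7.5, 10 mM MgCl2, 1% DMSO).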

JAK3 = molecular target: T2, JAK3 (Homo sapiens, UniProt P52333); assay: Biochemical JAK3 kinase assay (LanthaScreen); design: GST; purchased Life Technologies; conditions: for Ki: read-out: JAK 3 (pKi) (converted)
T2 sequence (P52333 1-1124): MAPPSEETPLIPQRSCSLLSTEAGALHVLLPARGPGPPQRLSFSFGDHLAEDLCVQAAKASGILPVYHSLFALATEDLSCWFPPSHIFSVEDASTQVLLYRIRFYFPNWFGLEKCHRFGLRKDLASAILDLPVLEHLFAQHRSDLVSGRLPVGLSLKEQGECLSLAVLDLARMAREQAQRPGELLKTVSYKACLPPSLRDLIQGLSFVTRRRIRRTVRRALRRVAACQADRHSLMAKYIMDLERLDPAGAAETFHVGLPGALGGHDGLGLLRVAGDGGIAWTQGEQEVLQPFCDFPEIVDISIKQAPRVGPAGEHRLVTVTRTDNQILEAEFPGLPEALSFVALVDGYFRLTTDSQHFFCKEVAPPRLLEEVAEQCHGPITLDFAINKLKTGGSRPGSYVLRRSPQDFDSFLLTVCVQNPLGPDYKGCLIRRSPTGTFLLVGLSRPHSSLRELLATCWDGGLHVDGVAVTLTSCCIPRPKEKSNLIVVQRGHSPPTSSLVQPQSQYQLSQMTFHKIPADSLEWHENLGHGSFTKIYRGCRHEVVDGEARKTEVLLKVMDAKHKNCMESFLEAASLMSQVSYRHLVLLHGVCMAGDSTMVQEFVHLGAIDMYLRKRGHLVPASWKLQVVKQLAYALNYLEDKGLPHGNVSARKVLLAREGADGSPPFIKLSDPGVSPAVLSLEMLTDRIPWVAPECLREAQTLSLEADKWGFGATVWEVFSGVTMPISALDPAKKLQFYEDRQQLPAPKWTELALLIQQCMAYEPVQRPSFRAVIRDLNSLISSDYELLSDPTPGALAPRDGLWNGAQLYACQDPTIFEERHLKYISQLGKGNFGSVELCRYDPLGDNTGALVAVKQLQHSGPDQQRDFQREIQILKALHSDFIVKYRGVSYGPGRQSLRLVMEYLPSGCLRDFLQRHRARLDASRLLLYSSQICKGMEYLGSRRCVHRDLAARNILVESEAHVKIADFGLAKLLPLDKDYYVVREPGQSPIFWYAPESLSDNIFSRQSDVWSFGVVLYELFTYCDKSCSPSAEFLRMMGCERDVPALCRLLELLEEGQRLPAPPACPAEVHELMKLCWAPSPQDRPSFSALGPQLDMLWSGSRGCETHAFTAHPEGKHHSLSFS
Procedure, shortened: (§1)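 Values are pKi, calculated by Cheng-Prusoff from IC50 obtained by robust 4-parameter fitting of percent inhibition. The kinase reaction used GFP-STAT1 peptide in HEPES pH 7.5 buffer with MgCl2, EGTA and Brij-35, ATP-initiated after compound pre-incubation, 1 h at ambient temperature.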

JAK1 = molecular target: T3, JAK1 (Homo sapiens, UniProt P23458); assay: Biochemical JAK1 kinase assay (LanthaScreen); conditions: for Ki: read-out: JAK 1 (pKi) (converted)
T3 construct: GST; purchased Life Technologies
T3 sequence (P23458 whole entry): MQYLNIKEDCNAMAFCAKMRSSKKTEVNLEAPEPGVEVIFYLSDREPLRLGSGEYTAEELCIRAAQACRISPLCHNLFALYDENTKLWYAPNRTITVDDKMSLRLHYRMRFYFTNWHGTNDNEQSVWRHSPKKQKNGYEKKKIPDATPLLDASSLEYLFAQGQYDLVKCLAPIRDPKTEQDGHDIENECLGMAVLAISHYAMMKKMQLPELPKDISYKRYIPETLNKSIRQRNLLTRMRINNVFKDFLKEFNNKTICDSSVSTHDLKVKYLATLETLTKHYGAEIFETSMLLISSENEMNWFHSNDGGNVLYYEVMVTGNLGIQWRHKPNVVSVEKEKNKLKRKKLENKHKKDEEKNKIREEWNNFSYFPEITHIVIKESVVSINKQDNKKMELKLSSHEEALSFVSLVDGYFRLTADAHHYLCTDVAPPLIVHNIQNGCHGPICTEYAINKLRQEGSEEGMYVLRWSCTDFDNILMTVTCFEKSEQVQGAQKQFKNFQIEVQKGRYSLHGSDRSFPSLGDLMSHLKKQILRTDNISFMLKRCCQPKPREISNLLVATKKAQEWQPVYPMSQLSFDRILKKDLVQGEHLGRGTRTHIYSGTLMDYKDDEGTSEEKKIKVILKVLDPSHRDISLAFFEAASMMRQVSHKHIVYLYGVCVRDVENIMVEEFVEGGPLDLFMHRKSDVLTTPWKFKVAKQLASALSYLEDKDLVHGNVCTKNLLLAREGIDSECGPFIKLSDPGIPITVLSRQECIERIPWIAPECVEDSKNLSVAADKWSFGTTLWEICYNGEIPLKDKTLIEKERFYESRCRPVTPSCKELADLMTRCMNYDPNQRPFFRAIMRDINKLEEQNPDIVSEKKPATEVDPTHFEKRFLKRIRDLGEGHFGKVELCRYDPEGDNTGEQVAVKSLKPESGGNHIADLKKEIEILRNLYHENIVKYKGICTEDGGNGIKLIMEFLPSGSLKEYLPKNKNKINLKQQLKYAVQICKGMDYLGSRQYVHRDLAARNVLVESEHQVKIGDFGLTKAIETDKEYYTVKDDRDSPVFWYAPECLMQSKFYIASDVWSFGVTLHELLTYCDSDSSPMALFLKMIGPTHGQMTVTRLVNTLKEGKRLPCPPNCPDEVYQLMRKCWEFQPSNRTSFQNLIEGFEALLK
Procedure, shortened: as §1

[1] = tested on: IL-2 stimulated pSTAT5 in Tall-1 T cells; assay: Cellular JAK3 potency assay: inhibition of IL-2 stimulated pSTAT5 in Tall-1 T cells; format: cell-based, human; conditions: for IC50: Homo sapiens, read-out: Tall-1 (pIC50) (converted)
Procedure, shortened: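 Tall-1 human T cells were preincubated with compound for 1 h at 37° C, then stimulated with IL-2 (300 ng/ml final) for 30 min. STAT5 phosphorylation in lysates was read by AlphaLisa bead emission, and IC50 from inhibition curves is given as pIC50 (mean±SD).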

Tyk2 = molecular target: T4, Tyk2 (Homo sapiens, UniProt P29597); assay: Biochemical Tyk2 kinase assay (LanthaScreen); conditions: for Ki: read-out: Tyk 2 (pKi) (converted)
T4 construct: GST; purchased Life Technologies
T4 sequence (P29597 whole entry): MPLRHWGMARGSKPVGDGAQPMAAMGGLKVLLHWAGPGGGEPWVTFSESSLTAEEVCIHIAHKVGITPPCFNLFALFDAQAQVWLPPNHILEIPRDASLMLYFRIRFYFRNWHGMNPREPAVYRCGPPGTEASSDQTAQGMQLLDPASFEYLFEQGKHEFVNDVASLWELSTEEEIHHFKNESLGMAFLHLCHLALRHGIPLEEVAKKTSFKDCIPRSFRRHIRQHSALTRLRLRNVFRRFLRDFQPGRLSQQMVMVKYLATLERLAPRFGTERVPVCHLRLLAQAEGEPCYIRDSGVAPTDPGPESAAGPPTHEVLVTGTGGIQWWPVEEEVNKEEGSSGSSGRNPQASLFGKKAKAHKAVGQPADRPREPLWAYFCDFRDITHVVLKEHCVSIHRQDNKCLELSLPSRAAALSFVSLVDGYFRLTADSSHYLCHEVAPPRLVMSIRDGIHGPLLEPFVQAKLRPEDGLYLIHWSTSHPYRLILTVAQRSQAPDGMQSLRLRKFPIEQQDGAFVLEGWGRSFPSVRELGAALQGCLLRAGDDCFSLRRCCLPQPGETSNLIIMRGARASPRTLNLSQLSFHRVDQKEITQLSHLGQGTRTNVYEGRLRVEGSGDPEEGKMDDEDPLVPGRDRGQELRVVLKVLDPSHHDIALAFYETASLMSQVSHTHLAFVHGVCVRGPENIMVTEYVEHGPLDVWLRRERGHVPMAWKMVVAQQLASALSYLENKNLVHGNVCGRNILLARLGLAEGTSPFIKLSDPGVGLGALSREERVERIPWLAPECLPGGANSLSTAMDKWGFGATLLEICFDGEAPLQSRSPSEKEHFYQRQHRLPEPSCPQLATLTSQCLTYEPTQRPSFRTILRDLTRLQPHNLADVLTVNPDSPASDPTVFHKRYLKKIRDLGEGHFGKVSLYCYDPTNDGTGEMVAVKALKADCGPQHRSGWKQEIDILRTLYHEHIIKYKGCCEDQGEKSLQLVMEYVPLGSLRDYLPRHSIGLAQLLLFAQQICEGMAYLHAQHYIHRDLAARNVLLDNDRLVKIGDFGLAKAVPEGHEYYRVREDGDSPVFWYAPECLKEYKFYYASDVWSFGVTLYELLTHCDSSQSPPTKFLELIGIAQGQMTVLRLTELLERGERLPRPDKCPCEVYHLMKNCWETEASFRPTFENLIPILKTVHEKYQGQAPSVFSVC
Procedure, shortened: as §1

[2] = selectivity JAK3 over JAK1, difference of pKi
[3] = IL-2 stimulated pSTAT5, Tall-1 T cells
[4] = selectivity: difference of pKi JAK3 and pKi JAK1
[5] = TALL-1, IL-2 stimulated pSTAT5 in Tall-1 T cells
[6] = IL-2 stimulated pSTAT5 in Tall-1 T cells
[7] = TALL-1, IL-2 stimulated pSTAT5, Tall-1 T cells

T1 sequence (O60674 whole entry): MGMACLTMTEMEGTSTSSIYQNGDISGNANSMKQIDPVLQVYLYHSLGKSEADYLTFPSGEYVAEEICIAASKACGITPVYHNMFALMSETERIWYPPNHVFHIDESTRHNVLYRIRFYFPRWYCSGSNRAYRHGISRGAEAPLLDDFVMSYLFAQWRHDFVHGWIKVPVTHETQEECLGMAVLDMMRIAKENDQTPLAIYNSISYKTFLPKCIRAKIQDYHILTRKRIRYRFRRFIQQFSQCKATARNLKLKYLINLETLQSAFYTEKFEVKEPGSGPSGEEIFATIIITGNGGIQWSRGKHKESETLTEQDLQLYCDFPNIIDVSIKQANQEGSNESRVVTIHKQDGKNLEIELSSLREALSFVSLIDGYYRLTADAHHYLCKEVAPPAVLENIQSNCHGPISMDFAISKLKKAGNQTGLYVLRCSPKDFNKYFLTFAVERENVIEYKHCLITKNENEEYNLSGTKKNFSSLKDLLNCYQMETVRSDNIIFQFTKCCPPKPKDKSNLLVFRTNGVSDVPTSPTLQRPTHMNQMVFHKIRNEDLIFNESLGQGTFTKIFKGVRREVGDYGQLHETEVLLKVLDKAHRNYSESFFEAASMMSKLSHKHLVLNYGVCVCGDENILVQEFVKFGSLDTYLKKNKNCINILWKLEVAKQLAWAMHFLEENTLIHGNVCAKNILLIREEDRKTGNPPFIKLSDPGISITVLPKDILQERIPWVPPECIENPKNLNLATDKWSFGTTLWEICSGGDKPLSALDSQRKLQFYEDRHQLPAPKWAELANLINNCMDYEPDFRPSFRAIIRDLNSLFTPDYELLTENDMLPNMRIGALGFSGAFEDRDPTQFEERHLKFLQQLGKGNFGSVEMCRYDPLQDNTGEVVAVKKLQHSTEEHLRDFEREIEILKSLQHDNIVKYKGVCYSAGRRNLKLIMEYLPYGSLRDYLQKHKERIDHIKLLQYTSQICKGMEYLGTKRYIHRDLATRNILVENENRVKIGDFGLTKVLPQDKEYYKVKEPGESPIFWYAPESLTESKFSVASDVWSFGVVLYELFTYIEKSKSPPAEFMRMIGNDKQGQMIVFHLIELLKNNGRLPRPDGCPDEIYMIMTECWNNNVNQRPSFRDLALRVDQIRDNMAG

SMILES | JAK 2 (pKi) (JAK2) | JAK 3 (pKi) (JAK3) | JAK3 (pKi)-JAK1 (pKi) (JAK3; [2]) | JAK 1 (pKi) (JAK1) | Tall-1 (pIC50) [1, 3] | Tyk 2 (pKi) (Tyk2) | Ki (JAK2) | Ki (JAK3) | JAK3 (pKi)-JAK1 (pKi) (JAK3; [4]) | Ki (JAK1) | IC50 [1, 5] | Ki (Tyk2) | Tall-1 (pIC50) [1, 6] | IC50 [1, 7]
C=CC(=O)N1CCC(N(C)c2cc(-c3ccc(O)c(F)c3)cc3[nH]ncc23)CC1 [Compound 7-10] | D (a pKi value between 7 and 8 (Ki between 100 nM and 10 nM)) | B (a pKi value between 9 and 10 (Ki between 1 nM and 0.1 nM)) | A (a value of 3 or above) | E (a pKi value of 7 or below (Ki of 100 nM or above)) | B (a pIC50 value between 6.7 (included) and 7.5 (IC50 between 200 nM and 32 nM)) | E (a pKi value of 7 or below (Ki of 100 nM or above)) | – | – | – | – | – | – | – | –
C=CC(=O)N1CC[C@H](Oc2cc(-c3ccc(O)c(F)c3)nc3[nH]nc(C)c23)C1 [Compound 1-33] | – | – | – | – | – | – | > 0.1 µM | 0.0001 to 0.001 µM | A (a value of 3 or above) | > 0.1 µM | 0.0316 to 0.2 µM | > 0.1 µM | – | –
C=CC(=O)N1CC(C)(Oc2cc(-c3ccc(O)cc3)cc3[nH]ncc23)C1 [Compound 5-12] | E (a pKi value of 7 or below (Ki of 100 nM or above)) | B (a pKi value between 9 and 10 (Ki between 1 nM and 0.1 nM)) | – | E (a pKi value of 7 or below (Ki of 100 nM or above)) | – | E (a pKi value of 7 or below (Ki of 100 nM or above)) | – | – | A (a value of 3 or above) | – | – | – | B (a pIC50 value between 6.7 (included) and 7.5 (IC50 between 200 nM and 32 nM)) | –
C=CC(=O)N1CC2(CC(Oc3cc(-c4ccc(O)c(F)c4)cc4[nH]ncc34)C2)C1 [Compound 15-2] | D (a pKi value between 7 and 8 (Ki between 100 nM and 10 nM)) | A (a pKi value≥10 (Ki≤0.1 nM)) | B (a value of 2.3 to 3) | D (a pKi value between 7 and 8 (Ki between 100 nM and 10 nM)) | A (a pIC50 value≥7.5 (IC50≤32 nM)) | E (a pKi value of 7 or below (Ki of 100 nM or above)) | – | – | – | – | – | – | – | –
CN(C)C/C=C/C(=O)N1CC(C#N)(COc2nc(-c3ccc(O)c(Cl)c3)cc3[nH]ncc23)C1 [Compound 3-71] | E (a pKi value of 7 or below (Ki of 100 nM or above)) | A (a pKi value≥10 (Ki≤0.1 nM)) | – | E (a pKi value of 7 or below (Ki of 100 nM or above)) | – | E (a pKi value of 7 or below (Ki of 100 nM or above)) | – | – | A (a value of 3 or above) | – | – | – | A (a pIC50 value≥7.5 (IC50≤32 nM)) | –
CSC1CCN(C/C=C/C(=O)N2CC(COc3cc(-c4ccc(O)cc4)cc4[nH]ncc34)C2)C1 (stereo not drawn) [Compound 3-125] | – | – | – | – | – | – | > 0.1 µM | 0.0001 to 0.001 µM | A (a value of 3 or above) | > 0.1 µM | 0.0316 to 0.2 µM | > 0.1 µM | – | –
CN(C)C/C=C/C(=O)N1CC(COc2cc(-c3cc(F)c(O)cc3F)cc3[nH]ncc23)C1 [Compound 18-3] | – | – | B (a value of 2.3 to 3) | – | – | – | 0.01 to 0.1 µM | < 0.0001 µM | – | 0.01 to 0.1 µM | – | > 0.1 µM | – | < 0.0316 µM
C=CC(=O)N1C[C@H](C(=O)Nc2cc(-c3ccc(O)cc3)cc3[nH]ncc23)OC[C@@H]1C [Compound 12-60] | – | – | A (a value of 3 or above) | – | – | – | > 0.1 µM | 0.0001 to 0.001 µM | – | > 0.1 µM | – | > 0.1 µM | – | 0.0316 to 0.2 µM
C=CC(=O)N1CC[C@@H](COc2cc(-c3ccc(O)cc3)cc3[nH]ncc23)C1 [Compound 12-20] | D (a pKi value between 7 and 8 (Ki between 100 nM and 10 nM)) | B (a pKi value between 9 and 10 (Ki between 1 nM and 0.1 nM)) | A (a value of 3 or above) | E (a pKi value of 7 or below (Ki of 100 nM or above)) | A (a pIC50 value≥7.5 (IC50≤32 nM)) | E (a pKi value of 7 or below (Ki of 100 nM or above)) | – | – | – | – | – | – | – | –
C=CC(=O)N1CC(OCc2cc(-c3ccc(O)c(F)c3)cc3[nH]ncc23)C1 [Compound 16-3] | E (a pKi value of 7 or below (Ki of 100 nM or above)) | B (a pKi value between 9 and 10 (Ki between 1 nM and 0.1 nM)) | A (a value of 3 or above) | E (a pKi value of 7 or below (Ki of 100 nM or above)) | A (a pIC50 value≥7.5 (IC50≤32 nM)) | E (a pKi value of 7 or below (Ki of 100 nM or above)) | – | – | – | – | – | – | – | –
C=CC(=O)N1CCCC(Oc2cc(-c3ccc(O)c(F)c3)cc3[nH]ncc23)C1 (stereo not drawn) [Compound 8-5] | D (a pKi value between 7 and 8 (Ki between 100 nM and 10 nM)) | A (a pKi value≥10 (Ki≤0.1 nM)) | A (a value of 3 or above) | E (a pKi value of 7 or below (Ki of 100 nM or above)) | A (a pIC50 value≥7.5 (IC50≤32 nM)) | E (a pKi value of 7 or below (Ki of 100 nM or above)) | – | – | – | – | – | – | – | –
Cc1n[nH]c2cc(-c3ccc(O)c(Cl)c3)cc(OCC3CN(C(=O)/C=C/CN(C)C)C3)c12 [Compound 18-1] | – | – | B (a value of 2.3 to 3) | – | – | – | 0.01 to 0.1 µM | 0.0001 to 0.001 µM | – | > 0.1 µM | – | > 0.1 µM | – | < 0.0316 µM
C=CC(=O)N1CC[C@H](Oc2cc(-c3ccc(O)cc3)cc3[nH]ncc23)C1 [Compound 1-2] | – | – | – | – | – | – | 0.01 to 0.1 µM | < 0.0001 µM | A (a value of 3 or above) | > 0.1 µM | < 0.0316 µM | > 0.1 µM | – | –
CN(C)C/C=C/C(=O)N1CCC(COc2cc(-c3ccc(O)cc3)cc3[nH]ncc23)CC1 [Compound 12-26] | – | – | B (a value of 2.3 to 3) | – | – | – | 0.01 to 0.1 µM | 0.0001 to 0.001 µM | – | > 0.1 µM | – | > 0.1 µM | – | 0.2 to 1 µM

From patent publication US10392368B2, “Pyrazolo and triazolo bicyclic compounds as JAK kinase inhibitors” (THERAVANCE BIOPHARMA R&D IP, LLC, priority 2017, dated 2019)
